Where “and” joins values, the source holds several entries; their conditions need not be identical. Identical values can stand only once.
Assays:
[1] = tested on: S. aureus ATCC 29213 and clinical isolates 55, 60, 25, 62; assay: MIC/MBC of S. aureus isolates to gentamicin; format: cell-based, Staphylococcus aureus
Method: Minimum inhibitory concentration (MIC)/minimum bactericidal concentration (MBC) were determined in Ca-MHB using a modified macrobroth dilution method as described by the CLSI (10). The final concentration of bacteria in each macrobroth dilution tube was approximately 5×10^5 cfu/ml of Ca-MHB. […] Samples (50 μl) from clear tubes and the cloudy tube with the highest drug concentration were plated on Mueller-Hinton agar (MHA) plates (Hardy Diagnostics, Santa Maria, Calif.). […] Drug carry-over effect was assessed by visual inspection of the distribution of colonies on media plates. The studies were conducted in duplicate and repeated at least once on a separate day. […]

[2] = tested on: S. aureus ATCC 29213 and clinical isolates 55, 60, 25, 62; assay: Time-kill studies and pharmacodynamic modeling, gentamicin; format: cell-based, Staphylococcus aureus
Method: Time-kill studies were conducted with different and escalating meropenem concentrations. […] An overnight culture of the isolate was diluted 30-fold with pre-warmed Ca-MHB and incubated further at 35 8 C until reaching late log phase growth. The bacterial suspension was diluted with Ca-MHB accordingly based on absorbance at 630 nm; 15 mL of the suspension was transferred to 50 mL sterile conical flasks each containing 1 mL of an antimicrobial agent solution at 16 the target concentration. The final concentration of the bacterial suspension in each flask was 1×10^8 cfu/mL. The high inoculum used was to simulate the bacterial load in severe infection, and to allow resistant sub-population(s) to be present at baseline. The experiment was conducted for 24 h in a shaker water bath set at 35 8 C. Serial samples in duplicate were obtained from each flask over 24 h, at 0 (baseline), 2, 4, 8, 12, and 24 h, to characterize the effect of various meropenem concentrations on the total bacterial population. Prior to culturing the bacteria quantitatively, the bacterial samples (0.5 mL) were centrifuged at 10000 g for 15 min, and reconstituted with sterile normal saline to their original volumes in order to minimize drug carry-over effect. Total bacterial populations were quantified by spiral plating 10 serial dilutions of the samples ([…]) onto MHA plates. The media plates were incubated in a humidified incubator (35 8 C) for 18-24 h, and the bacterial density from each sample was determined by CASBA-4 colony scanner/software (Spiral Biotech, Bethesda, Md., USA).
In contrast to the conventional approach in which the final observed effects are modelled, information over time was utilized to develop a dynamic model system that would capture bacterial growth/killing rates. The starting point was a mathematical model describing the time course of bacterial burden [biological response, N(t)] under the influence of various antimicrobial agent concentrations C(t). The rate of change of bacteria over time was expressed as the difference between the intrinsic bacterial growth rate and the kill rate provided by the antimicrobial agent (Eq. 35). Based on previous studies, a linear bacterial growth rate was adopted. Additional model parameters were used to account for other physiological phenomena such as contact inhibition (using a maximum population size) and non-linear (sigmoidal) kill rate to account for target site saturation. Regrowth was attributed to adaptation, which was explicitly modelled as increase in the concentration necessary to achieve 50% maximal kill rate (C50k), using a saturable function of antimicrobial agent selective pressure (both meropenem concentration and time) (Eq. 36).
Time-kill modeling was performed for S. Aureus and gentamicin as for P. aeruginosa according to procedures and dynamic growth modeling in Examples 2-3.

S. aureus ATCC 29213 = assay: Hollow-fiber infection model, gentamicin; format: cell-based, Staphylococcus aureus
Method: The computer simulations were compared to experimental data from an in-vitro hollow fiber infection model with similar antimicrobial agent exposures (20). Basically the drug was injected directly into the central reservoir to achieve the peak concentration desired. Fresh (drug-free) growth medium (Ca-MHB) was continuously infused from the diluent reservoir into the central reservoir to dilute the drug in order to simulate drug elimination in humans. […] Bacteria were inoculated into the extracapillary compartment of the hollow-fiber cartridge (Fibercell Systems, Inc., Frederick, Md.); they are confined in the extracapillary compartment, but are exposed to the fluctuating drug concentration in the central reservoir by means of an internal circulatory pump in the bioreactor loop. The optional absorption compartment of the system was not used.

[3] = tested on: gentamicin resistant P. aeruginosa isolates; conditions: after serial passage on drug-free plates and storage at −70° C.
P. aeruginosa ATCC 27853 [4] = assay: Hollow fiber infection model, gentamicin; format: cell-based, Pseudomonas aeruginosa; conditions: Cmax/MIC of 30 every 12 h
Method: The media plates were incubated at 35° C. for up to 24 (total population) and 72 hours (sub-populations with reduced susceptibility), then bacterial density from each sample was enumerated visually. The theoretical lower limit of detection was 400 CFU/ml.

P. aeruginosa ATCC 27853 [5] = assay: Time-kill studies and best-fit model, gentamicin; format: cell-based, Pseudomonas aeruginosa; conditions: PA 27853
Method: A clinical relevant concentration range of gentamicin (from 0-32 mg/l) was used. […] The data were used as inputs to derive the best-fit model parameter estimates, as previously described (24, 17). The baseline inoculum (10^7 CFU/ml) was deemed to be dense enough to constitute a heterogeneous bacterial population. […] In Table 5: PA—P. aeruginosa, AB—A. baumannii, Kg—growth rate constant for bacterial population, Nmax—maximum population size, Kk—maximal kill rate constant for bacterial population, C50k—concentration to achieve 50% of maximal kill rate for bacterial population, H—sigmoidicity constant for bacterial population, β—maximal adaptation, and τ—rate of adaptation factor.

P. aeruginosa ATCC 27853 [6] = assay: MIC/MBC, modified macrobroth dilution; format: cell-based, Pseudomonas aeruginosa; conditions: P. aeruginosa isolate (PA 27853)
Method: The final concentration of bacteria in each macrobroth dilution tube was approximately 5×10^5 cfu/ml of Ca-MHB. Serial twofold dilutions of meropenem were used. […] Samples (50 μl) from clear tubes and the cloudy tube with the highest drug concentration were plated on Mueller-Hinton agar (MHA) plates (Hardy Diagnostics, Santa Maria, Calif.). […] Drug carry-over effect was assessed by visual inspection of the distribution of colonies on media plates. The studies were conducted in duplicate and repeated at least once on a separate day.

[7] = tested on: amikacin resistant A. baumannii isolates; assay: Resistance confirmation, repeat susceptibility testing, amikacin; format: cell-based, Acinetobacter baumannii; conditions: amikacin resistant isolates

## gentamicin
[1]; S. aureus strain 25
  MBC: 2 μ/mL
  MIC: 1 μ/mL
[1]; S. aureus strain 55
  MBC: 2 μ/mL
  MIC: 0.5 μ/mL
[1]; S. aureus strain 60
  MBC: 2 μ/mL
  MIC: 1 μ/mL
[1]; S. aureus strain 62
  MBC: 1/1 μ/mL
  MIC: 1/1 μ/mL
[1]; S. aureus strain ATCC 29213
  MBC: 2 μ/mL
  MIC: 1 μ/mL
[2]; S. aureus strain 25
  C50K: 3.18 mg/L
  H: 1.27
  β: 9,952
  τ: 0.00002 L/mg/h
[2]; S. aureus strain 55
  C50K: 2.58 mg/L
  H: 1.07
  β: 166.5
  τ: 0.00178 L/mg/h
[2]; S. aureus strain 60
  C50K: 1.05 mg/L
  H: 1.52
  β: 427.9
  τ: 0.00277 L/mg/h
[2]; S. aureus strain 62
  C50K: 0.65 mg/L
  H: 1.61
  β: 336.2
  τ: 0.00715 L/mg/h
[2]; S. aureus strain ATCC 29213
  C50K: 5.14 mg/L
  H: 0.75
  β: 14,620
  τ: 0.00011 L/mg/h
[2]; all five S. aureus isolates
  concentrations beyond which the rate of killing seemed to plateau: 4 to 8 times the MIC
[2]; gentamicin concentration increased from 0.5 to 4 times the MIC
  bactericidal activity: concentration dependent
S. aureus ATCC 29213; 3-times-daily dosing regimen
  microbiologic response with repeated dosing: sustained bacterial suppression over 5 days
S. aureus ATCC 29213; both dosing regimens (once daily and 3 times daily, identical daily doses)
  killing at 24 h: approximately 5 log
S. aureus ATCC 29213; once-daily dosing regimen, over the next 4 days
  microbiologic response with repeated dosing: regrowth was apparent
[3]
  stability of resistance: not stable
P. aeruginosa ATCC 27853 [4]
  microbial response: Sustained suppression of resistance emergence was achieved
P. aeruginosa ATCC 27853 [5]
  C50k: 0.72 mg/L
  H: 3.73
  Kk: 4.68 h⁻¹
  β: 42.54
  τ: 0.0135 L/mg/h
P. aeruginosa ATCC 27853 [6]
  MBC: 2 mg/l and 2/2 mg/l
  MIC: 2 mg/l and 2/2 mg/l
[7]
  cross-resistance: observed

— patent US8452543B2, “High throughput screening for antimicrobial dosing regimens” (priority 2005, dated 2013)
